Test results from patent US20200281989A1, “METHOD OF PREPARING A COMPOSITION FOR TREATING CANCER” (priority 2019, published 2020).

How the values were obtained:
Hep3B cells = assay: Invasion chamber (transwell) assay / metastatic potential, Hep3B cells; assay type: cell-based, human; conditions: FIGS. 17A-17E
Description: (§1) Another embodiment of the anti-cancer oral composition was prepared by combining lipid Fraction 1 with ethanol to provide a first mixture in a ratio of 5 μg/mL, a second mixture in a ratio of 10 μg/mL, and a third mixture in a ratio of 25 μg/mL. The mixtures and a control (0.1% ethanol) were tested for inhibition of metastatic potential of cancer Hep3B cell line (FIGS. 13A-13E) and cancer Panc-1 cell line (FIGS. 13F-131).
(§2) An aliquot of 0.5 ml Hep3B or Panc-1 cell suspension in serum-free medium with BSA (1 mg/ml) containing 6×10^4 cells/ml was mixed with F6 and then applied to each invasion chamber. An aliquot of 0.5 ml medium with 10% serum was loaded into the bottom of the well. After incubation for 6 hours, cells that invaded to the bottom surface of the transwell were fixed with 70% ethanol, stained with Diff Quik solution (Sysmex), and counted in five selected fields.

[1] = tested on: human breast cancer cells MDA MB-231; assay: WST-1 cell proliferation assay, MDA MB-231 breast cancer cells; assay type: cell-based; conditions: WST-1, FIG. 4C
Description: FIG. 4C is a graph showing the effect of fraction 3 of the neutral lipids, furan (F6), and a steroid (S5) on human breast cancer cells MDA MB-231 using the WST-1 spectrophotometric detection assay. The assay measured the net metabolic activity of the cells. Human breast MDA MB-231 cell line was purchased from ATCC (Manassas, Va., USA). MCF-7 and 1_x 10^4 cells/well/100 uL) and were plated a day before experiment in normal growth medium. The next day, medium was replaced with serum free medium (Gibco #11835-030) to starve the cells for 4 h. Cells were deprived of serum for 4 h before treatment with the lipids to eliminate binding of the compounds to serum proteins. After starvation, Cells (1_x 104 in 100 L) were seeded into each well with conditioned medium overnight (20 h) in a 96-well plate to which the test compounds (−ve control ethanol, Ft-3, F-6 and S5) were added at the concentrations indicated. A volume of 10 uL WST-1, cell proliferation assay reagent (Roche Diagnostics, Indianapolis, Ind., USA), was added to each well and incubated for 4 h. Then, the wells were read on a plate reader at 450 nm with a reference reading at 650 nm. Reference reading at 650 nm was used for subtracting background readouts.

breast MCF-7 cells = assay: WST-1 cell proliferation assay, MCF-7 breast cancer cells; assay type: cell-based, human; conditions: WST-1, FIG. 4B
Description: FIG. 4B is a graph showing the effect of fraction 3 of the neutral lipids, furan (F6), and a steroid found in fraction 3 of the neutral lipids, (S5) and the two isolated components from fraction 3 of the neutral lipids on breast MCF-7 cells using the WST-1 spectrophotometric detection assay. WST was performed to assess cell proliferation under different treatment conditions. The assay measured the net metabolic activity of the cells. Human breast MCF-7 cell line was purchased from ATCC (Manassas, Va., USA). 1×10^4 cells/well/100 L) and were plated a day before experiment in normal growth medium. The next day, the medium was replaced with serum free medium (Gibco #11835-030) to starve the cells for 4 h. Cells were deprived of serum for 4 h before treatment with the lipids to eliminate binding of the compounds to serum proteins. After starvation, the medium was replaced with fresh IMDM media containing 1% (v/v) FBS and 100 units of PS. Cells (1×104 in 100 L) were seeded into each well with conditioned medium overnight (20 h) in a 96-well plate to which the test compounds (−ve control ethanol, Fr-3 of the neutral lipids, F6 and S5) were added at the concentrations indicated. […] Then, the wells were read on a plate reader at 450 nm with a reference reading at 650 nm. Reference reading at 650 nm was used for subtracting background readouts.

[2] = tested on: human leukemia K562 cells; assay: WST-1 cell proliferation assay, K562 leukemia cells; assay type: cell-based; conditions: for anti-proliferative effect on leukemic K562 cells: WST-1, FIGS. 3B, 4A
Description: The graphs show results of different concentrations of the compounds using the WST-1 spectrophotometric detection assay. WST is a colorimetric assay to assess cell proliferation under different treatment conditions. This assay is based on the cleavage of a tetrazolium salt (2-(4-Iodophenyl)-3-(4-nitrophenyl)-5-phenyl-2h-tetrazolium chloride) to form formazan (a colored compound) by mitochondrial dehydrogenases in viable cells. As a result, the assay measures the net metabolic activity of the cells. Human leukemia K562 cell line was purchased from ATCC (Manassas, Va., USA) and plated a day before the experiment in normal growth medium. The next day, the medium was replaced with serum free medium (Gibco #11835-030) to starve the cells for 4 h. Cells were deprived of serum for 4 h before treatment with the lipids to eliminate binding of the compounds to serum proteins. After starvation, K562 cells were then centrifuged. The medium was replaced with fresh IMDM media containing 1% (v/v) FBS and 100 units of PS. Cells (1×104 in 100 L) were seeded into each well with conditioned medium for overnight (20 h) in a 96-well plate to which the test compounds (−ve control ethanol, Ft-3, F-6 and S5) were added at the concentrations indicated. A volume of 10 uL WST-1, cell proliferation assay reagent (Roche Diagnostics, Indianapolis, Ind., USA), was added to each well and incubated for 4 h, and then the wells were read on a plate reader at 450 nm with a reference reading at 650 nm. Reference reading at 650 nm was used for subtracting background readouts.
Another embodiment of the anti-cancer oral composition was prepared by combining lipid Fraction 3 of the neutral lipid fraction and ethanol in a ratio of 20 μg/μL to provide a mixture. The mixture was prepared by dissolving Fraction 3 in pure ethanol then diluting it to the desired concentration with culture medium. Cells (1×10^4) were starved overnight in serum-free medium, then the medium was replaced prior to incubation with IMDM/1% FBS/pen-strep. […]

BxPC3 cells = assay: Proliferation of BxPC3 pancreatic cancer cells; assay type: cell-based, human; conditions: F6 5-50 μg/ml for 72 hours, FIG. 18A
Panc-1 cells [3] = assay: Apoptosis induction (cell cycle, caspase-3), pancreatic cancer cells; assay type: cell-based, human; conditions: FIGS. 18A-18F
Capan2 cells = assay: Proliferation of Capan2 pancreatic cancer cells; assay type: cell-based, human; conditions: F6 5-50 μg/ml for 72 hours, FIG. 18A
Panc-1 cells [4] = assay: Invasion chamber (transwell) assay, Panc-1 cells; assay type: cell-based, human; conditions: concentration dependent, 6 hours incubation, FIGS. 19A-19B
Description: as §1, §2

[5] = tested on: human pancreatic cancer cells (Panc-1 cells); assay: Cell growth inhibition, Panc-1 pancreatic cancer cells; assay type: cell-based; conditions: F6 5-50 μg/ml for 72 hours, FIG. 18A

With `CC(C)CCC[C@@H](C)[C@H]1CC[C@H]2[C@@H]3CC=C4C=CCC[C@]4(C)[C@H]3CC[C@]12C` [Fraction S5, cholesta-3,5-diene] the “Hep3B cell metastasis (markers migration and invasion)” value (Hep3B cells) was “inhibit cancer Hep3B cell metastasis”, the “anti-proliferative effect on breast MDA MB-231 cells” value [1] was “anti-proliferative effects” and the “anti-proliferative effect on breast MCF-7 cells” value (breast MCF-7 cells) was “anti-proliferative effects”. The “anti-proliferative effect on leukemic K562 cells” value [2] was “anti-proliferative effects”.
With `Cc1ccc(NC(=O)c2ccc(CN3CCN(C)CC3)cc2)cc1Nc1nccc(-c2cccnc2)n1` [Gleevec, reference compound] the “effect of combination of Fraction 3 and Gleevec on K562 cell survival” value ([2]; Gleevec 2 uM with Fraction 3, WST-1, FIG. 3B) was “potentiated the anti-proliferative effect”.
With `CCCCCc1oc(CCCCCCCCCCC(=O)O)c(C)c1C` [Fraction F6, 12,15-epoxy-13,14-dimethyleicosa-12,14-dienoic acid] the “Hep3B cell metastasis (markers migration and invasion)” value (Hep3B cells) was “inhibit cancer Hep3B cell metastasis”, the “inhibition of proliferation of BxPC3 cells” value (BxPC3 cells) was “potently inhibited proliferation” and the “mechanism of regulation of pancreatic cancer cell growth” value (Panc-1 cells [3]) was “induction of apoptosis”. The “anti-proliferative effect on breast MDA MB-231 cells” value [1] was “anti-proliferative effects”, the “inhibition of proliferation of Capan2 cells” value (Capan2 cells) was “potently inhibited proliferation” and the “invasion of Panc-1 cells” value (Panc-1 cells [4]) was “inhibited invasion”. For the same compound, the “inhibition of proliferation of Panc-1 cells” value [5] was “potently inhibited proliferation”, the “anti-proliferative effect on breast MCF-7 cells” value (breast MCF-7 cells) was “anti-proliferative effects” and the “anti-proliferative effect on leukemic K562 cells” value [2] was “anti-proliferative effects”.
